The numbers were not newly measured in US20060141037A1, “Bilayer tablets of oxcarbazepine for controlled delivery and a process of preparation thereof” (J. B. Chemicals & Pharmaceuticals Ltd., priority 2004, published 2006), which cites them from elsewhere.

In one data set the test system is animal models. To be noted: comparable to that of carbamazepine and phenytoin.
The subject of data set [1] is voltage-sensitive sodium channels. To be noted: in vitro electrophysiological studies.

`NC(=O)N1c2ccccc2CC(O)c2ccccc21` (centres unmarked) [MHD, 10,11-dihydro-10-hydro-carbamazepine]: in the data set on animal models, the “antiepileptic activity in animal models” value was “potent antiepileptic activity”. Moreover, the “effect on voltage-sensitive sodium channels” value in data set [1] is “blockade of voltage-sensitive sodium channels”.

For the compound `NC(=O)N1c2ccccc2CC(=O)c2ccccc21` [Oxcarbazepine, 10,11-dihydro-10-oxo-5H-dibenz[b,f]azepine-5-carboxamide], the solubility in water entry is given as “practically insoluble in water”. For the same compound, the “antiepileptic activity in animal models” value in the data set on animal models is given as “potent antiepileptic activity”. In addition, in data set [1], the “effect on voltage-sensitive sodium channels” value was “blockade of voltage-sensitive sodium channels”.
